# Experimental data taken from article PMC9181982, “Biphenyl Ether Analogs Containing Pomalidomide as Small-Molecule Inhibitors of the Programmed Cell Death-1/Programmed Cell Death-Ligand 1 Interaction” (Molecules, 2022).
# “Also recorded” adds a separate entry of the source.
# Biological target: T1, PD-L1 in MDA-MB-231 cells (Homo sapiens, UniProt Q9NZQ7)
# T1 construct: host or cells: MDA-MB-231
# Experiment: Western blot of PD-L1 expression in MDA-MB-231 cells
# Type: cell-based
# Settings: MDA-MB-231 cells treated for 6 or 24 h
# Method: The cell lysates were prepared with a RIPA buffer (Sigma-Aldrich) containing Protease Inhibitor Cocktail (Sigma-Aldrich, St. Louis, MO, USA) and separated by 12% SDS-PAGE (TGX™ FastCast™ Acrylamide Kit, Bio-Rad, Hercules, CA, USA). The proteins were transferred to a PVDF membrane (Merck Millipore, Burlington, MA, USA) using a Mini Trans-Blot® Cell system (Bio-Rad, Hercules, CA, USA). The membranes were incubated with 4% (m/v) bovine serum albumin (BioShop, Burlington, Ontario, Canada) in a TBS buffer containing 0.1% (v/v) Nonidet P-40 (BioShop, Burlington, Ontario, Canada) at RT for 1 h. Then, the membranes were incubated with a specific primary antibody at 4 °C overnight. Following three washes in TBS-N, a secondary horseradish peroxidase (HRP)-conjugated antibody was applied for 1 h at RT. […]
# Figure 2 Bioactivity of the indicated compounds. (A,B) The activity was monitored with a cell-based immune checkpoint blockade (ICB) assay. […] The cells were co-cultured for 6 h and the luminescence signal was measured following the addition of the Bio-Glo substrate. The graphs show fold induction calculated versus either DMSO-treated (for small molecules) or untreated (for durvalumab) control (ctrl) cells. […]
# T1 sequence (Q9NZQ7 19-290): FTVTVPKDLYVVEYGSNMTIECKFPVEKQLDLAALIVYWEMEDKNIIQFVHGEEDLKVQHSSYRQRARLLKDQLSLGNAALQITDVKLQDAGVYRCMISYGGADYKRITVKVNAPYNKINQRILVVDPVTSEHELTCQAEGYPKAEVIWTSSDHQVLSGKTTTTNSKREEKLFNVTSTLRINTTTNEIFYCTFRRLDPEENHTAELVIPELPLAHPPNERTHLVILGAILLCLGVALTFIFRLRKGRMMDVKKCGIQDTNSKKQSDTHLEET
row,Structure (SMILES),Downregulation of PD-L1 expression (Western blot)
1,"COc1nc(OCc2cccc(-c3ccccc3)c2C)ccc1CNCCCNc1cccc2c1C(=O)N(C1CCC(=O)NC1=O)C2=O (centres unmarked) [compound 5, 2-(2,6-dioxopiperidin-3-yl)-4-((3-(((2-methoxy-6-((2-methyl-[1,1′-biphenyl]-3-yl)methoxy)pyridin-3-yl)methyl)amino)propyl)amino)isoindoline-1,3-dione]",not related to the downregulation of PD-L1 expression; also recorded: unrelated to the downregulation of PD-L1 expression
2,"COc1nc(OCc2cccc(-c3ccccc3)c2C)ccc1CNCC1CCN(CC(=O)Nc2cccc3c2C(=O)N(C2CCC(=O)NC2=O)C3=O)CC1 (centres unmarked) [compound 4, N-(2-(2,6-dioxopiperidin-3-yl)-1,3-dioxoisoindolin-4-yl)-2-(4-((((2-methoxy-6-((2-methyl-[1,1′-biphenyl]-3-yl)methoxy)pyridin-3-yl)methyl)amino)methyl)piperidin-1-yl)acetamide]",not related to the downregulation of PD-L1 expression; also recorded: unrelated to the downregulation of PD-L1 expression
